# According to patent US9545407B2, “Formulations of a bruton's tyrosine kinase inhibitor” (Pharmacyclics LLC, priority 2014, dated 2017):
# Read-outs that look alike come from different tables or passages of the source.
# Test system: OCI-Ly10
# Assay: growth inhibition of OCI-Ly10 (ABC subtype DLBCL cells)
# Assay type: cell-based
# Settings: Homo sapiens
# Text: See U.S. Pat. No. 7,711,492 and Staudt et al., Nature, Vol. 463, Jan. 7, 2010, pp. 88-92, the contents of which are incorporated by reference in their entirety.
smiles,measurement,setting,value
"C=CC(=O)N1CCC[C@@H](n2nc(-c3ccc(Oc4ccccc4)cc3)c3c(N)ncnc32)C1 [Compound 1, 1-((R)-3-(4-amino-3-(4-phenoxyphenyl)-1H-pyrazolo[3,4-d]pyrimidin-1-yl)piperidin-1-yl)prop-2-en-1-one]",EC50,"continuous exposure, read-out: EC50 continuous exposure",10 nM
same,EC50,"read-out: EC50 1 hour pulse, 1 hour pulse",50 nM
